Organism: Rattus norvegicus
Experiment: Open TG-GATES - Regimen: Single
Type: toxicity, organism-based, Sprague-Dawley
Parameters: regimen Single, gender Male, age 6 weeks
Conditions: in vivo, po, 100 mg/kg, route gavage, dose level Middle; for APTT / Bas / Eos / Fbg / Hb / Ht / Lym / MCH / MCHC / MCV / Mono / Neu / PT / Plat / RBC / Ret / WBC: tissue Blood; for KIDNEY_L / KIDNEY_R / KIDNEY_TOTAL: tissue Kidney; for LIVER: tissue Liver; for A/G / ALP / ALT / AST / BUN / CRE / Ca / Cl / DBIL / GLC / IP / K / LDH / Na / PL / RALB / TBIL / TC / TG / TP / gamma-GTP: tissue Plasma

## Nc1ccc(Cc2ccc(N)cc2)cc1
3 h
  TERMINAL_BW: 212.4 g
  APTT: 14.4 s
  Bas: 0%
  Eos: 0.6%
  Fbg: 268.8 mg/dL
  Hb: 13 g/dL
  Ht: 38%
  Lym: 75.8%
  MCH: 21 pg
  MCHC: 34.2%
  MCV: 61.4 fL
  Mono: 3.8%
  Neu: 19.4%
  PT: 11.7 s
  Plat: 154.4 x10_4/uL
  RBC: 618.6 x10_4/ul
  Ret: 8.7%
  WBC: 83.6 x10_2/uL
  KIDNEY_L: 0.8 g
  KIDNEY_R: 0.9 g
  KIDNEY_TOTAL: 1.7 g
  LIVER: 9.1 g
  A/G: 0.8
  ALP: 1470.6 IU/L
  ALT: 45.6 IU/L
  AST: 82.8 IU/L
  BUN: 11 mg/dL
  CRE: 0.2 mg/dL
  Ca: 10.9 mg/dL
  Cl: 104 meq/L
  DBIL: 0.028 mg/dL
  GLC: 173.6 mg/dL
  IP: 9.4 mg/dL
  K: 4 meq/L
  LDH: 64.4 IU/L
  Na: 140.2 meq/L
  PL: 155.6 mg/dL
  RALB: 2.5 g/dL
  TBIL: 0.074 mg/dL
  TC: 86.4 mg/dL
  TG: 73 mg/dL
  TP: 5.6 g/dL
  gamma-GTP: 1.2 IU/L
6 h
  TERMINAL_BW: 206.8 g
  APTT: 14.6 s
  Bas: 0%
  Eos: 0.6%
  Fbg: 278 mg/dL
  Hb: 13.4 g/dL
  Ht: 39.2%
  Lym: 62.4%
  MCH: 21.2 pg
  MCHC: 34.1%
  MCV: 62.3 fL
  Mono: 3.6%
  Neu: 32.2%
  PT: 11.8 s
  Plat: 144.9 x10_4/uL
  RBC: 630.2 x10_4/ul
  Ret: 8.2%
  WBC: 104 x10_2/uL
  KIDNEY_L: 0.9 g
  KIDNEY_R: 0.9 g
  KIDNEY_TOTAL: 1.9 g
  LIVER: 9.3 g
  A/G: 0.8
  ALP: 1520.8 IU/L
  ALT: 42.8 IU/L
  AST: 94.8 IU/L
  BUN: 8.8 mg/dL
  CRE: 0.2 mg/dL
  Ca: 10.5 mg/dL
  Cl: 104.6 meq/L
  DBIL: 0.1 mg/dL
  GLC: 176.2 mg/dL
  IP: 9.5 mg/dL
  K: 4 meq/L
  LDH: 90 IU/L
  Na: 140.2 meq/L
  PL: 152.4 mg/dL
  RALB: 2.5 g/dL
  TBIL: 0.2 mg/dL
  TC: 79 mg/dL
  TG: 53.2 mg/dL
  TP: 5.6 g/dL
  gamma-GTP: 2.6 IU/L
9 h
  TERMINAL_BW: 205.5 g
  APTT: 14.8 s
  Bas: 0%
  Eos: 0.8%
  Fbg: 285.4 mg/dL
  Hb: 13 g/dL
  Ht: 37.8%
  Lym: 68.6%
  MCH: 21.2 pg
  MCHC: 34.2%
  MCV: 61.9 fL
  Mono: 2.8%
  Neu: 27.6%
  PT: 12.1 s
  Plat: 139.1 x10_4/uL
  RBC: 610.8 x10_4/ul
  Ret: 7.8%
  WBC: 72.9 x10_2/uL
  KIDNEY_L: 0.9 g
  KIDNEY_R: 0.9 g
  KIDNEY_TOTAL: 1.8 g
  LIVER: 8 g
  A/G: 0.8
  ALP: 1218.8 IU/L
  ALT: 43.8 IU/L
  AST: 105 IU/L
  BUN: 8.2 mg/dL
  CRE: 0.2 mg/dL
  Ca: 10.2 mg/dL
  Cl: 106.2 meq/L
  DBIL: 0.2 mg/dL
  GLC: 167.6 mg/dL
  IP: 9.4 mg/dL
  K: 4.5 meq/L
  LDH: 99 IU/L
  Na: 142.4 meq/L
  PL: 166.2 mg/dL
  RALB: 2.4 g/dL
  TBIL: 0.3 mg/dL
  TC: 86.8 mg/dL
  TG: 39.8 mg/dL
  TP: 5.3 g/dL
  gamma-GTP: 3.4 IU/L
24 h
  TERMINAL_BW: 195.3 g
  APTT: 16.4 s
  Bas: 0%
  Eos: 0.4%
  Fbg: 474.8 mg/dL
  Hb: 12.6 g/dL
  Ht: 35.7%
  Lym: 62.4%
  MCH: 21.5 pg
  MCHC: 35.4%
  MCV: 60.6 fL
  Mono: 5%
  Neu: 31%
  PT: 11.5 s
  Plat: 149.3 x10_4/uL
  RBC: 589 x10_4/ul
  Ret: 6.7%
  WBC: 118.7 x10_2/uL
  KIDNEY_L: 0.9 g
  KIDNEY_R: 0.9 g
  KIDNEY_TOTAL: 1.8 g
  LIVER: 7.8 g
  A/G: 0.8
  ALP: 3282.4 IU/L
  ALT: 252.8 IU/L
  AST: 532.6 IU/L
  BUN: 11.2 mg/dL
  CRE: 0.2 mg/dL
  Ca: 11.1 mg/dL
  Cl: 102.2 meq/L
  DBIL: 2.3 mg/dL
  GLC: 136.2 mg/dL
  IP: 9.6 mg/dL
  K: 3.8 meq/L
  LDH: 332.8 IU/L
  Na: 143.8 meq/L
  PL: 302.6 mg/dL
  RALB: 2.4 g/dL
  TBIL: 3.1 mg/dL
  TC: 135.2 mg/dL
  TG: 63.4 mg/dL
  TP: 5.6 g/dL
  gamma-GTP: 8.6 IU/L
